Assay results published in ChEMBL document CHEMBL5653631, “A Potent and Selective ULK1 Inhibitor Suppresses Autophagy and Sensitizes Cancer Cells to Nutrient Stress” (iScience, 2018).

Experiments:
[1] = molecular target: T1, Ephrin type-B receptor 4 (Homo sapiens) (UniProt P54760); assay: Inhibition of human recombinant EphB4 at 500 nM in presence of ATP by radiometric assay relative to control
T1 sequence (whole entry): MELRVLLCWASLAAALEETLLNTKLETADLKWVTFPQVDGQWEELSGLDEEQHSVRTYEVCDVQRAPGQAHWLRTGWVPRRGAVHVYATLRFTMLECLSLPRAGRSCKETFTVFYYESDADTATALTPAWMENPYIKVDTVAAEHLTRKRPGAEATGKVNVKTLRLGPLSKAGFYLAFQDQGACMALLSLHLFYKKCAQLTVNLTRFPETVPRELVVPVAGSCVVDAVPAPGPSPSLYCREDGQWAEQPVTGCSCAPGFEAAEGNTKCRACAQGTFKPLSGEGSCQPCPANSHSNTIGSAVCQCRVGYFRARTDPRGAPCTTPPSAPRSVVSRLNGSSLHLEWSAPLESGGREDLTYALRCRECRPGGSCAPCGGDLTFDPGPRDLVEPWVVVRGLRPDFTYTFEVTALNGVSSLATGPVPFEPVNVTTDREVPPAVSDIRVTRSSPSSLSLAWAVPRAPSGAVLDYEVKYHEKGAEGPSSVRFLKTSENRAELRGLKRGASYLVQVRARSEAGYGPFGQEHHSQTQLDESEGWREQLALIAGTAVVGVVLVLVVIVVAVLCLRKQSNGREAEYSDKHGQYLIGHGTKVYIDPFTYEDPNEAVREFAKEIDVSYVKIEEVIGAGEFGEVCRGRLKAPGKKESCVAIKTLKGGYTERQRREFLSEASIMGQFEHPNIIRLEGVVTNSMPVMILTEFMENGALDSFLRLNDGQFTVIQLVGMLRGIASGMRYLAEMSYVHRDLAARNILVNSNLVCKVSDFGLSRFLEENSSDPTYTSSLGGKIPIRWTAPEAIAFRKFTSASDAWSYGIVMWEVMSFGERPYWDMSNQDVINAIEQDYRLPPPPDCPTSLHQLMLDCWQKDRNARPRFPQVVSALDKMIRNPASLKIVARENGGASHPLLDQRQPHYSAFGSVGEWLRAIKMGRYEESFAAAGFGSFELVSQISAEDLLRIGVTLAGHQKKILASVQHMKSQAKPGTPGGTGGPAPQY

[2] = molecular target: T2, Mitogen-activated protein kinase kinase kinase 3 (Homo sapiens) (UniProt Q99759); assay: Inhibition of human recombinant MAP3K3 at 500 nM in presence of ATP by radiometric assay relative to control
T2 sequence (whole entry): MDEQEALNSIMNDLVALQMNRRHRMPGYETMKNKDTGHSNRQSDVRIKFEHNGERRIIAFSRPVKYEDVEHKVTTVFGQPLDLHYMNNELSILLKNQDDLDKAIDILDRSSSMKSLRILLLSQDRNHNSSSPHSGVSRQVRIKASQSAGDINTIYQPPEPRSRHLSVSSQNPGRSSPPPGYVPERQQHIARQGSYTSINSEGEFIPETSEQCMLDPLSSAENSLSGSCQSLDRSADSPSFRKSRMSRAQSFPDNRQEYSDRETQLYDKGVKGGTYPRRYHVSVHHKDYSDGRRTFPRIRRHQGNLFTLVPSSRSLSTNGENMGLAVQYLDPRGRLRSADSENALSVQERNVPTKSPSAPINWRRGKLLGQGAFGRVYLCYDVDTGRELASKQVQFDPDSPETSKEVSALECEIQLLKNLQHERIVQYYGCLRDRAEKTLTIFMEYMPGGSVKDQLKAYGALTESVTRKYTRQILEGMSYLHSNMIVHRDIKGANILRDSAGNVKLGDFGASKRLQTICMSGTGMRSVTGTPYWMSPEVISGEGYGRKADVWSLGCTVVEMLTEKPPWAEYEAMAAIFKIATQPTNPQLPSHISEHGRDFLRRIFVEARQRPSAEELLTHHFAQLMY

[3] = molecular target: T3, Testis-specific serine/threonine-protein kinase 2 (Homo sapiens) (UniProt Q96PF2); assay: Inhibition of human recombinant TSSK2 at 15 nM related to control ULK1
T3 sequence (whole entry): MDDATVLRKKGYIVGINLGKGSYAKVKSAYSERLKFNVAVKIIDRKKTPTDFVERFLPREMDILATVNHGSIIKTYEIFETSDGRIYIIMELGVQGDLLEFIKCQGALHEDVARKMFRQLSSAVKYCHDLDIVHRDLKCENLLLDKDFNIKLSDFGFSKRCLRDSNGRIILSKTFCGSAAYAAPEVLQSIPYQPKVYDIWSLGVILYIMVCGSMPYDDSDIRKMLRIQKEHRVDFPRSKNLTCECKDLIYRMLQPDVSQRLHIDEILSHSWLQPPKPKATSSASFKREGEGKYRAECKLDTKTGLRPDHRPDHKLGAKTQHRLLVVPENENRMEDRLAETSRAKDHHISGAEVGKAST

[4] = molecular target: Death-associated protein kinase 3 (Homo sapiens) (UniProt O43293); assay: Inhibition of human recombinant DAPK3 at 40 nM in presence of ATP by radiometric assay relative to control
[5] = molecular target: Focal adhesion kinase 1 (Homo sapiens) (UniProt Q05397); assay: Inhibition of human recombinant FAK at 40 nM in presence of ATP by radiometric assay relative to control
[6] = molecular target: Ephrin type-A receptor 2 (Homo sapiens) (UniProt P29317); assay: Inhibition of human recombinant EphA2 at 40 nM related to control ULK1
Chain of Ephrin type-A receptor 2 (Homo sapiens) (P29317 whole entry): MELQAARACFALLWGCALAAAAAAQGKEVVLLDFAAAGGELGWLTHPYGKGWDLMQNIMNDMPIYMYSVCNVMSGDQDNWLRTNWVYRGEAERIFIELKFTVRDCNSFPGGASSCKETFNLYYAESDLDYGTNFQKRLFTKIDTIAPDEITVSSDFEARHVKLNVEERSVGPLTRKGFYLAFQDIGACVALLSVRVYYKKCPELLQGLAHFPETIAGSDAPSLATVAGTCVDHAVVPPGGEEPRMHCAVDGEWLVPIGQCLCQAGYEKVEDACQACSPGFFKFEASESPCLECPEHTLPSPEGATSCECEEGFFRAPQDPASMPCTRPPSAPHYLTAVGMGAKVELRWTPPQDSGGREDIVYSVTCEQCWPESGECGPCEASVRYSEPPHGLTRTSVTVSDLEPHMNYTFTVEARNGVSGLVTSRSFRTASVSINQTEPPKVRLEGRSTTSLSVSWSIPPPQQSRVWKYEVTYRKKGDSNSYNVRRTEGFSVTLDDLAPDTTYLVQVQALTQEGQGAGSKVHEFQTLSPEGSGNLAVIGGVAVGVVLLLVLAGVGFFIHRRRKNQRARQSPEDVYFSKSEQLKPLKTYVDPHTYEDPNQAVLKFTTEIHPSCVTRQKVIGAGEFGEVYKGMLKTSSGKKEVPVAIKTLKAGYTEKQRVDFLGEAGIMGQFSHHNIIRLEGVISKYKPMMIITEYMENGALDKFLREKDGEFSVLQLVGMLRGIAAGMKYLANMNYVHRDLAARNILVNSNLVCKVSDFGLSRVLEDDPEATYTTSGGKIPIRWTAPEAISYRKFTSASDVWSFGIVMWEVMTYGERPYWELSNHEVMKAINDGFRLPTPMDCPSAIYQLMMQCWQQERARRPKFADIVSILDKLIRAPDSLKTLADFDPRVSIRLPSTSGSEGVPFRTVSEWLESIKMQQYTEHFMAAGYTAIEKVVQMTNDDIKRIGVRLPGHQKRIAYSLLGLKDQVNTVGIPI

Chain of Focal adhesion kinase 1 (Homo sapiens) (Q05397 2-1052 limits assumed): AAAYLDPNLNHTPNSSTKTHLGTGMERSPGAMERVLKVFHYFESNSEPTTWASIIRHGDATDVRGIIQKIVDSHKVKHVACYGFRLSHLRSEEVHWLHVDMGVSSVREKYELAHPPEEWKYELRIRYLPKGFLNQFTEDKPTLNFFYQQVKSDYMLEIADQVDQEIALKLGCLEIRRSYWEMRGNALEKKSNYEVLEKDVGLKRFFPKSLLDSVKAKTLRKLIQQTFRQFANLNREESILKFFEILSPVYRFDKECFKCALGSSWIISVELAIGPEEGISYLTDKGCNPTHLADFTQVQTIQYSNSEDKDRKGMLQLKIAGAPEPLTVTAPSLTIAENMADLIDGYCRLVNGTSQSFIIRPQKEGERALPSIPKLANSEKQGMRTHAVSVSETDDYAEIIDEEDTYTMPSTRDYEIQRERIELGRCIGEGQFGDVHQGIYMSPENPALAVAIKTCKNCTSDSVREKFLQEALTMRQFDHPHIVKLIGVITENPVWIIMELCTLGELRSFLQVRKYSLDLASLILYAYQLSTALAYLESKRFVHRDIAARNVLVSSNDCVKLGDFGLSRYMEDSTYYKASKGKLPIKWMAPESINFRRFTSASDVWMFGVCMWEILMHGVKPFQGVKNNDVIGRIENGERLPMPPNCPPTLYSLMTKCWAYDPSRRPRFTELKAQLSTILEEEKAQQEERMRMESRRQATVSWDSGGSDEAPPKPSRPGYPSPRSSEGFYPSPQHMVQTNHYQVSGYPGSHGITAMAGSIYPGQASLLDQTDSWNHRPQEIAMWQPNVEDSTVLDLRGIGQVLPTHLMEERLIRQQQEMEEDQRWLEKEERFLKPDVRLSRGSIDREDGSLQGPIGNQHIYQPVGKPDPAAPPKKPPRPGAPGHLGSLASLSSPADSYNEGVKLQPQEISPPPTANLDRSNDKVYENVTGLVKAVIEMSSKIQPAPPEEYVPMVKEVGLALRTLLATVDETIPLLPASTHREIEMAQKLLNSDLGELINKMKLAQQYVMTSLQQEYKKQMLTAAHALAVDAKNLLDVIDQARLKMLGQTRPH
Chain of Death-associated protein kinase 3 (Homo sapiens) (O43293 whole entry, looked up): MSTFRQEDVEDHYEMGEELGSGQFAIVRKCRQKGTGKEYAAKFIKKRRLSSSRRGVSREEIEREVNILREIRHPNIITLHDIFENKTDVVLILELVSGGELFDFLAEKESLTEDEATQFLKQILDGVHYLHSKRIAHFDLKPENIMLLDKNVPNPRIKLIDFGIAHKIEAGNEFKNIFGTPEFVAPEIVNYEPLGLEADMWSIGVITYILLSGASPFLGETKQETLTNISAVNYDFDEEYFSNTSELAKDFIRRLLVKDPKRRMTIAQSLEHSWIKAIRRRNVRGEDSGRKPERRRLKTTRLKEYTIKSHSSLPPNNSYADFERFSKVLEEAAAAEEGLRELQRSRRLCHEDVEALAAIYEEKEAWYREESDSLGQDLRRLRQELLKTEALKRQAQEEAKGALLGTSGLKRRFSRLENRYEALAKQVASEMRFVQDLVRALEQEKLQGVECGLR

CNC(=O)c1ccccc1Oc1nc(Nc2cc(OC)c(OC)c(OC)c2)ncc1Br
inhibition [1]: 0%
inhibition [2]: 0%

CC(C)[C@H](NC(=O)c1cc(-c2cnn3cc(-c4ccc(OCCN5CCCCC5)cc4)cnc23)cs1)C(F)(F)F
fold change (FC) [3]: 0.01

O=C(N[C@@H](C1CC1)C(F)(F)F)c1cc(-c2cnn3cc(-c4ccc(F)cc4)cnc23)cs1
inhibition [4]: 8%
inhibition [5]: 0%
fold change (FC) [6]: 0.03
